Data as given in patent publication US20040072750A1, “Compounds and methods for the modulation of CD154” (priority 2001, published 2004).
“Also recorded” adds a separate entry of the source. Bridge positions count the residues as written; N and C are the ends. Square brackets hold non-standard residues; d marks the D form. Peptide text beside a SMILES is read from it. hArg = N=C(N)NCCCC[C@H](N)C(=O)O; Mpa = O=C(O)CCS

B1: rsCD154: bacterially expressed recombinant human soluble CD154 (108 a.a-261 a.a.), 18-kDa protein (protein)
chain: ENSFEMQKGDQNPQIAAHVISEASSKTTSVLQWAEKGYYTMSNNLVTLENGKQLTVKRQGLYYIYAQVTFCSNREASSQAPFIASLCLKSPGRFERILLRAANTHSSAKPCGQQSIHLGGVFELQPGASVFVNVTDPSQVSHGTGFTSFGLLKL

Columns and labels:
[1] = system: platelets; assay: Platelet surface expression of CD154 and release of thrombospondin; format: cell-based, human
[2] = system: CD154−/− mice; assay: Intravital microscopy thrombosis model of the mouse mesentery (FeCl3-injured arteriole); format: in vivo; conditions: single dose 26 μg/mouse, 5 to 10 minutes before arteriole injury
Protocol: The role of CD154 in thrombus formation was investigated using a model that compares wild type (WT) mice with CD154−/− mice that have impaired thrombosis. […] It was observed that the occlusion time is approximately twice as long in the CD 154−/− mouse as in wild type, apart from any other treatment effect.
In this example, the recombinant form of the soluble CD154 was infused into the CD154−/− mouse. Thrombus formation was evaluated using the model as described below.
To perform the investigation, the intravital microscopy thrombosis model of the mouse mesentery was used (Denis et al., PNAS, 95:9524-9, (1998)). The interactions of fluorescently-labeled platelets with a FeCl3-injured arteriolar vessel wall (shear rate ˜1300 s^−1) were analyzed. […]
Immediately after infusion of fluorescent platelets into mice of matching genotypes (4- to 5-weeks old C57BL6J and CD154−/−), animals were anesthetized with 2.5% tribromoethanol (0.15 mL/10 g). […] The shear rate (1000 to 1300 s^−1) was calculated using an optical Doppler velocimeter using known methods (see, e.g., Blood, November 2000). […]
Resting blood vessel was recorded for 2 minutes, then Ferric Chloride (30 μl of a 250-mM solution) was superfused, and video recording was resumed for another 40 minutes, or until full occlusion occurred and lasted for more than 10 seconds. […]

[3] = system: washed platelets; assay: β3 integrin tyrosine-759 phosphorylation staining of platelets spread on sCD154; format: cell-based, human; conditions: platelets spread on 10 μg/ml sCD154 coated cover slips
Protocol: Further, cover slips were coated with 10 μg/ml sCD154 for 2 hours at 37° C. and blocked with 5% crystalline BSA (Sigma chemicals). 100 μl of washed platelets at 10^7/ml were allowed to spread for 1 hour at 37° C. Non-adhered platelets were washed off with PBS. Adhered platelets were fixed with 4% para-formaldehyde and permeabilized with 0.5% Triton X-100 and 0.5% BSA in PBS. Permeabilized platelets were blocked with 3% goat serum and 2% BSA for 30 min. followed by incubation with a IIIa(p3) integrin cytoplasmic tyrosine-759 phospho-specific polyclonal antibody for 2 hours at room temperature. After 30 minutes washing with PBS containing 0.1% Triton X-100 and 0.5% BSA, the coverslips were incubated with a Alexa 596 goat anti-rabbit antibody and Alexa fluor 488 phalloidin for 40 min. followed by a brief wash and mounted on slides with VECTASHIELD (Vector laboratories, Burlingame, Calif.). Images were recorded using a digital camera, Hamamatsu, ORCA-ER attached to a Nikon fluorescence microscope, eclipse E1000 (Technical Instruments, San Francisco, Calif.). […] The staining was inhibited by β3 759 phospho-peptide confirming the specificity of the antibody (FIG. 11b).

Row | Molecule | thrombin- or TRAP-induced surface expression of CD154 [1] | TRAP-induced release of thrombospondin ([1]; data not shown) | thrombotic process (occlusion) in CD154−/− mice [2] | staining with β3 integrin 759-tyrosine phosphospecific antibody [3]
1 | N=C(N)NCCCC[C@@H]1NC(=O)CCSSC[C@@H](C(N)=O)NC(=O)[C@@H]2CCCN2C(=O)[C@H](Cc2c[nH]c3ccccc23)NC(=O)[C@H](CC(=O)O)NC(=O)CNC1=O [eptifibatide] ([Mpa][hArg]GDWPC-NH2; disulfide 1-7) | did not affect; also recorded: unaffected | did not affect; also recorded: without affecting | – | –
2 | B1 | – | – | reconstitute a normal thrombotic process | stained positive
